Results from patent publication US20090023806A1, “ALUMINUM-STORAGE DISEASE IMPROVING AGENT” (AJINOMOTO CO. INC, priority 2006, published 2009).

Tests used:
[1] = Elimination of aluminum accumulated in rat thigh bones by repeated intravenous citric acid; type: in vivo; details: aluminum-loaded male rats, 0.75% citric acid solution i.v. 4 hours, three times a week for 4 weeks
Procedure: After aluminum accumulations were made in rat tissues, citric acid as an aluminum complexing agent was administered intravenously repeatedly to examine whether citric acid would eliminate the aluminum accumulated in the tissues.
Aluminum was administered to male rats intraperitoneally repeatedly once a day for 6 weeks at 2 mg/kg. Then, the rats were cannulated in the jugular vein.
From the jugular cannula, 0.75% citric acid solution was administered repeatedly taking the same dialysis time and frequency as in human; that is, for 4 hours continuously intravenously three times a week for 4 weeks.
For the control group, physiological saline was administered in the same means. Each group had 4 to 6 rats.
After the 4-week administration, thigh bones were collected from the rats to compare the aluminum levels in the thigh bones of both groups using the ratios of the aluminum peak area analyzed by the HPLC method against the peak area of internal standard substance as an indicator.

[2] = Protein-binding rate of aluminum in rat plasma by ultrafiltration, with citric acid added; type: in vitro ADME; details: aluminum 50 μg/L, citric acid final concentration raised by 3 mg/dL, 37° C. 60 minutes, no citric acid: 23.4±10.0%
Procedure: Whether aluminum combined to proteins chelates with citric acid and is dissociated from the proteins in rat plasma was examined.
A used indicator was the protein-binding rates (by ultrafiltration method) when citric acid was added and when not added.
Aluminum was added to rat blood plasma to make the concentration 50 μg/L, and citric acid was added there to make the final concentration rise by 3 mg/dL. Then, it was incubated at 37° C. for 60 minutes. After that, the solution was centrifuged in a centrifuge (Centrifree) to obtain about 100 μL of filtrate. The aluminum concentrations of the added sample, the supernatant and the filtrate were measured respectively by the HPLC method (Chromatoracer Al; SHINO-TEST Corp.) to calculate the protein-binding rates.

[3] = Citric acid concentration in patient blood plasma during dialysis with citric acid-containing dialysate; type: in vivo, human; details: 1.7 mEq/L of citric acid added to a dialysate during a dialysis treatment
Procedure: The present invention provides a dialysate comprising aluminum complexing agents. Preferably, the aluminum complexing agent is citric acid. […] Meanwhile, it had been confirmed that, when 1.7 mEq/L of citric acid had been added to a dialysate during a dialysis treatment, the citric acid concentration in the patient blood plasma had risen by about 3 mg/dL. In the following examples, how this phenomenon effects on the aluminum kinetics in vivo was examined.

SMILES: O=C(O)CC(O)(CC(=O)O)C(=O)O [citric acid]
- thighbone aluminum levels compared with control group ([1]; P<0.05 Student's t-test): statistically significantly lower
- thigh bone aluminum level: ratio of aluminum peak area (HPLC) against peak area of internal standard ([1]; saline control 4.46±0.52, mean±S.D.): 3.62±0.27
- free-aluminum percentage [2]: 35.5±0.4%
- rise of citric acid concentration in patient blood plasma [3]: about 3 mg/dL
